pEC50: −log10 of the molar value.

Assay [1] deals with SW480, MelJuso, HCC44, SH2 and COLO704 cell lines. The assay is classed as cell-based. Conditions: 24 h, 0.01-100 μM. The method, then: (§1) In the following experiment the possible therapeutic window for NO-ASA derivatives was investigated. […] The melanoma cell line MelJuso, the colon carcinoma cell line SW480, the small cell lung cancer cell line HCC44, the ovarian adenocarcinoma cell line COLO704 and the acute myeloid leukemia cell line SH2 were treated with concentrations of p-NO-ASA and B9, B12 and B13 in a range between 0.01 μM and 100 μM for 24 h, followed by addition of luminogenic CellTiter-Glo® reagent.

Another assay has as its system GRANTA-519. As to the kind of experiment: CellTiter-Glo ATP assay, GRANTA-519 cell line. The class given is cell-based. Conditions: Homo sapiens, Granta-519; 24 h, CellTiter-Glo. Here is the method:
(§2) Several cell lines (n=5) were treated with different concentrations of p-NO-ASA, B9, B12 and B13 ranging between 0.01 μM and 1000 μM for 24 hours followed by addition of luminogenic CellTiter-Glo®-reagent. […] For each cell line the order of used compound in the bar chart is from left to right as following: p-NO-ASA, B9, B12, B13.
(§3) Treatment success in CLL may depend on cytogenetic and molecular parameters as for instance del13q or TP53 gene disruption. Therefore, the NO-ASA derivatives were examined on (chronic) B cell lymphoma cell lines with different geno- and phenotypes (JVM3, EHEB, U2932, MEC-1, GRANTA-519). The cells were treated with concentrations between 0.01 and 1000 μM for 24 h followed by the addition of luminogenic CellTiter-Glo® reagent.
In general terms: Cellular ATP, detected with luciferase, serves as a proxy for viable cell number.

For assay [2], the system named is peripheral blood mononuclear cells (PBMCs) of healthy donors. As to the kind of experiment: AnnexinV/PI assay on PBMCs of healthy donors. The assay is classed as cell-based. Conditions: Homo sapiens, PBMC; 24 h incubation, 0.01-100 μM, 5*10^6 cells/ml, normalized to DMSO control; read-out: AnnexinV/PI assay EC50 PBMCs. Here is the method: PBMCs or CLL cells (5*10^6 cells/ml) were incubated for 24 h with different compounds at concentrations from 0.01 to 100 μM. Cell survival was normalized to DMSO control [vehicle]. See Example 1.
Primary CLL or peripheral blood mononuclear cells of healthy donors (5*10^6/ml) were incubated for 24 h with different compounds according to the invention and NO-ASA as a control. The compounds were added in different concentrations, in particular in concentrations from 0.01-100 μM. Cell survival was assessed by AnnexinV/PI assay (Kit commercially available, e.g. by Biotium Inc, USA; or Phoenix Flow Systems, US), the results were normalized to DMSO control [vehicle] and dose response curves were calculated using a non-linear regression model.

For another assay, the system named is U2932. In words: CellTiter-Glo ATP assay, U2932 cell line. Conditions: 24 h, 0.01-1000 μM. The class given is cell-based. The method, then: as §2, §3
Assay [3] deals with CLL cells without a TP53 mutation. As to the kind of experiment: FACS analysis of treated CLL cells without TP53 mutation. The assay is classed as cell-based, human. Conditions: 24 h, 0.01-100 μM, FIG. 6. Here is the method:
(§4) Isolated, primary CLL cells were treated for 24 h with the EC50 of the different compounds and the ATP-content was measured by flow cytometry. For each used compound the order of mean EC50 concentrations in the bar chart is from left to right as following: EC50 CLL cells TP53 unmut (unmutated=without mutation), EC50 CLL cells TP53 mut (mutated=with mutation).
(§5) Further, the derivatives B9, B12 and B13 were tested in comparison to para-NO-ASA on CLL cells which harbour a TP53 mutation. The patient subgroup with a TP53 disruption is characterized by a considerable dismal prognosis. CLL cells of patients with and without the TP53 mutation were treated with five different concentrations (0.01, 0.1, 1, 10, 100 μM) of para-NO-ASA, B9, B12 and B13 for 24 h.
(In general: In flow cytometry, cells or beads pass a laser one at a time.)

The test system of assay [4] is small cell lung cancer cell line HCC44. In words: Viability assay (ATP content, CellTiter-Glo), HCC44. The class given is cell-based. Conditions: Homo sapiens, HCC44, 24 h. The method, then: as §1
(§6) Table accompanying Example 5. Overview of the EC50 values of cell survival analyzed by ATP content and Annexin V/PI assay. n.t.; not tested

The next assay concerns TP53-mutated CLL cells. In words: FACS analysis of treated CLL cells with TP53 mutation. Conditions: 24 h, 0.01-100 μM, FIG. 6. The assay is classed as cell-based, human. The method, then: as §4, §5
Assay [5] concerns ovarian adenocarcinoma cell line COLO704. As to the kind of experiment: Viability assay (ATP content, CellTiter-Glo), COLO704. The class given is cell-based. Conditions: COLO 704, 24 h. Here is the method:
as §1, §6

The test system of assay [6] is several cancer cell lines. In words: Apoptosis (Annexin V/PI) assay, panel of cancer cell lines. The class given is cell-based. Conditions: range over the cancer cell lines, 24 h; read-out: concentrations inducing apoptosis in different diseases (apoptosis array).
Assay [7] concerns phosphorylated NFkappaBp65 protein. As to the kind of experiment: Western blot of NFkappaB phosphorylation status in CLL cells. The class given is cell-based, human. Conditions: 3 h. The method, then: CLL cells were treated with B1, B9, B12 and B13 (0.1 μM, 1 μM, 10 μM) for 3 h. Untreated and DMSO (1%) treated cells served as control. GAPDH=loading control.
The BCR signalling pathway plays an important pathogenic role in CLL and lymphomas leading often to a constitutive active NFkappaB (in this state NFkappaB is phosphorylated). Therefore the influence of the derivatives on the phosphorylation status of NFkappaB was analyzed by Western Blot. CLL cells were treated with 0.1 μM, 1 μM or 10 μM of each derivate, respectively, for 3 h. CLL cells were treated with B1, B9, B12 and B13 (0.1 μM, 1 μM, 10 μM) for 3 h. Untreated and DMSO (1%) treated cells served as control. GAPDH=loading control.

Another assay has as its system caspases 3 and 7. As to the kind of experiment: caspase-3/7 assay in CLL cells. The class given is cell-based. Conditions: Homo sapiens, CLL cell, 6 h, 0.01-20 μM, luminogenic caspase-3/7-substrate, read-out: activation of caspases 3 and 7, EC50. An excerpt:
FIG. 8 depicts the involvement of caspase-mediated apoptosis in CLL cells upon treatment with p-NO-ASA, B9, B12 and B13. Representative blots of 3 independent experiments are shown. Untreated and DMSO (1%) treated cells served as control. beta-actin=loading control (FIG. 8A). para-NO-ASA and B9 induced a concentration-dependent increase in caspase-3/7-activation (FIG. 8B).
To determine whether the toxicity on CLL cells is due to caspase-mediated apoptosis, the cleavage of PARP (Poly(ADP-ribose)-Polymerase 1) and XIAP (X-linked inhibitor of apoptosis) was analyzed by immunoblot. CLL cells were cultured alone, with 1% DMSO or with EC50 of p-NO-ASA, meta-NO-ASA, B9, B12 and B13 for 24 h followed by protein lysation and western blot analysis using antibodies to detect prognostic apoptotic proteins (XIAP, PARP). […] All compounds tested induced PARP and XIAP cleavage (FIG. 8A). Further a caspase-3/7 assay was carried out. CLL cells were incubated with para-NO-ASA and B9 in different concentrations ranging from 0.01 μM to 20 μM for 6 h followed by addition of luminogenic caspase-3/7-substrate. This indicates the reduction of the survival of CLL cells upon treatment with p-NO-ASA and B9 due to the induction of caspase-mediated apoptosis.

For the compound `O=C(Oc1ccc(CO[N+](=O)[O-])cc1)c1ccccc1` [B9, 4-((nitrooxy)methyl)phenyl benzoate], in assay [1], the “ATP content in SW480, MelJuso, HCC44, SH2 and COLO704 cell lines” value is “reduced ATP content”. The pEC50 in the assay with GRANTA-519 was 5.64; in [2] it was 4.10; in [4] it was 5.61; in assay [5], 5.36; in assay [6], 5.05 to 6.00; in the assay on caspases 3 and 7, 6.64. Also, the “ATP content in U2932” value with U2932 is “reduced ATP content”. In addition, in assay [3], the “effect on CLL cells without a TP53 mutation” value is “great effect”. Besides, the “effect on TP53-mutated CLL cells in comparison to para-NO-ASA (B1)” value with TP53-mutated CLL cells was “more effective”. For the same compound, the “reduction of NFkappaB activity (phosphorylated NFkappaBp65)” value in [7] (CLL cells, 0.1, 1, 10 μM) was “concentration dependent reduction”. In assay [7] (CLL cells), the “concentration inducing the reduction of NFkappaB p65 protein” value was 10 µM.

The values are drawn from patent publication US10793509B2, “Compounds useful in the treatment of neoplastic diseases” (UNIVERSITÄT ZU KÖLN, priority 2013, dated 2020).
